From ChEMBL document CHEMBL5380782, “Design, Biological Evaluation, and Computer-Aided Analysis of Dihydrothiazepines as Selective Antichlamydial Agents” (J Med Chem, 2023)

Key:
[1] = Mutagenicity in Salmonella typhimurium TA98 assessed as number of revertants per plate at 50 ug pretreated for 90 mins measured after 66 hrs in presence of S9 fraction by AMES test (reference value: 24.33 +/- 9.50); type: toxicity, subcellular, Salmonella enterica subsp. enterica serovar Typhimurium; conditions: s9, 67.5 h, dose 50 µg
[2] = Mutagenicity in Salmonella typhimurium TA98 assessed as number of revertants per plate at 5000 ug pretreated for 90 mins measured after 66 hrs in presence of S9 fraction by AMES test (reference value: 24.33 +/- 9.50); type: toxicity, subcellular, Salmonella enterica subsp. enterica serovar Typhimurium; conditions: s9, 67.5 h, dose 5000 µg
[3] = Mutagenicity in Salmonella typhimurium TA100 assessed as number of revertants per plate at 1500 ug pretreated for 90 mins measured after 66 hrs by AMES test (reference value: 206 +/- 7.07); type: toxicity, Salmonella enterica subsp. enterica serovar Typhimurium; conditions: in vivo, 67.5 h, dose 1500 µg
[4] = Mutagenicity in Salmonella typhimurium TA98 assessed as mutagenic index ratio at 5000 ug pretreated for 90 mins measured after 66 hrs by AMES test; type: toxicity, Salmonella enterica subsp. enterica serovar Typhimurium; conditions: in vivo, 67.5 h, dose 5000 µg
[5] = Mutagenicity in Salmonella typhimurium TA98 assessed as mutagenic index ratio at 50 ug pretreated for 90 mins measured after 66 hrs by AMES test; type: toxicity, Salmonella enterica subsp. enterica serovar Typhimurium; conditions: in vivo, 67.5 h, dose 50 µg
Escherichia coli = assay: Antimicrobial activity against non-pathogenic Escherichia coli ATCC MG1655 assessed as microbial growth inhibition incubated for 24 hrs by TTC staining based assay; type: functional
[6] = Mutagenicity in Salmonella typhimurium TA100 assessed as mutagenic index ratio at 5000 ug pretreated for 90 mins measured after 66 hrs in presence of S9 by AMES test; type: toxicity, Salmonella enterica subsp. enterica serovar Typhimurium; conditions: in vivo, 67.5 h, dose 5000 µg
[7] = Mutagenicity in Salmonella typhimurium TA98 assessed as mutagenic index ratio at 5000 ug pretreated for 90 mins measured after 66 hrs in presence of S9 fraction by AMES test; type: toxicity, subcellular, Salmonella enterica subsp. enterica serovar Typhimurium; conditions: s9, 67.5 h, dose 5000 µg
Nakaseomyces glabratus = assay: Antimicrobial activity against Candida glabrata 2001 assessed as microbial growth inhibition by broth microdilution method; type: functional
[8] = Mutagenicity in Salmonella typhimurium TA100 assessed as mutagenic index ratio at 500 ug pretreated for 90 mins measured after 66 hrs by AMES test; type: toxicity, Salmonella enterica subsp. enterica serovar Typhimurium; conditions: in vivo, 67.5 h, dose 500 µg
[9] = Cytotoxicity against HEK293 cells assessed as cell viability at 25 ug/ml incubated for 20 hrs by XTT assay relative to control; type: toxicity, cell-based; conditions: human, at 25 µg/mL, read-out: Activity
[10] = Mutagenicity in Salmonella typhimurium TA100 assessed as mutagenic index ratio at 50 ug pretreated for 90 mins measured after 66 hrs by AMES test; type: toxicity, Salmonella enterica subsp. enterica serovar Typhimurium; conditions: in vivo, 67.5 h, dose 50 µg
[11] = Mutagenicity in Salmonella typhimurium TA98 assessed as number of revertants per plate at 500 ug pretreated for 90 mins measured after 66 hrs in presence of S9 fraction by AMES test (reference value: 24.33 +/- 9.50); type: toxicity, subcellular, Salmonella enterica subsp. enterica serovar Typhimurium; conditions: s9, 67.5 h, dose 500 µg
Chlamydia trachomatis = assay: Antibacterial activity against Chlamydia trachomatis L2 infected in HEp-2 cells assessed as reduction in number of chlamydial inclusion incubated for 24 hrs by fluorescence microscopy; type: functional, organism-based; conditions: dose 1.56-12.5 µg/ml
[12] = Cytotoxicity against HEp-2 cells assessed as cell viability at 256 ug/ml incubated for 20 hrs by XTT assay relative to control; type: toxicity, cell-based; conditions: human, at 256 µg/mL, read-out: Activity
[13] = Mutagenicity in Salmonella typhimurium TA98 assessed as number of revertants per plate at 150 ug pretreated for 90 mins measured after 66 hrs by AMES test (reference value: 25.67 +/- 5.51); type: toxicity, Salmonella enterica subsp. enterica serovar Typhimurium; conditions: in vivo, 67.5 h, dose 150 µg
[14] = system: Bacteroides thetaiotaomicron; assay: Antimicrobial activity against Bacteroides thetaiotaomicron DSM 2079 assessed as microbial growth inhibition incubated for 48 hrs; type: functional
Candida tropicalis = assay: Antimicrobial activity against Candida tropicalis 750 assessed as microbial growth inhibition by broth microdilution method; type: functional
Acinetobacter baumannii = assay: Antimicrobial activity against Acinetobacter baumannii 2208 assessed as microbial growth inhibition incubated for 24 hrs by TTC staining based assay; type: functional
[15] = Mutagenicity in Salmonella typhimurium TA98 assessed as number of revertants per plate at 500 ug pretreated for 90 mins measured after 66 hrs by AMES test (reference value: 25.67 +/- 5.51); type: toxicity, Salmonella enterica subsp. enterica serovar Typhimurium; conditions: in vivo, 67.5 h, dose 500 µg
[16] = Mutagenicity in Salmonella typhimurium TA100 assessed as number of revertants per plate at 5000 ug pretreated for 90 mins measured after 66 hrs in presence of S9 by AMES test (reference value: 201 +/- 9.90); type: toxicity, Salmonella enterica subsp. enterica serovar Typhimurium; conditions: in vivo, 67.5 h, dose 5000 µg
[17] = Mutagenicity in Salmonella typhimurium TA98 assessed as number of revertants per plate at 1500 ug pretreated for 90 mins measured after 66 hrs by AMES test (reference value: 25.67 +/- 5.51); type: toxicity, Salmonella enterica subsp. enterica serovar Typhimurium; conditions: in vivo, 67.5 h, dose 1500 µg
Thomasclavelia ramosa = assay: Antimicrobial activity against Clostridium ramosum DSM 1402 assessed as microbial growth inhibition incubated for 48 hrs; type: functional
[18] = Mutagenicity in Salmonella typhimurium TA98 assessed as mutagenic index ratio at 500 ug pretreated for 90 mins measured after 66 hrs in presence of S9 fraction by AMES test; type: toxicity, subcellular, Salmonella enterica subsp. enterica serovar Typhimurium; conditions: s9, 67.5 h, dose 500 µg
[19] = Mutagenicity in Salmonella typhimurium TA100 assessed as mutagenic index ratio at 1500 ug pretreated for 90 mins measured after 66 hrs in presence of S9 by AMES test; type: toxicity, Salmonella enterica subsp. enterica serovar Typhimurium; conditions: in vivo, 67.5 h, dose 1500 µg
[20] = Mutagenicity in Salmonella typhimurium TA100 assessed as number of revertants per plate at 1500 ug pretreated for 90 mins measured after 66 hrs in presence of S9 by AMES test (reference value: 201 +/- 9.90); type: toxicity, Salmonella enterica subsp. enterica serovar Typhimurium; conditions: in vivo, 67.5 h, dose 1500 µg
[21] = Mutagenicity in Salmonella typhimurium TA100 assessed as number of revertants per plate at 50 ug pretreated for 90 mins measured after 66 hrs by AMES test (reference value: 206 +/- 7.07); type: toxicity, Salmonella enterica subsp. enterica serovar Typhimurium; conditions: in vivo, 67.5 h, dose 50 µg
[22] = Mutagenicity in Salmonella typhimurium TA100 assessed as number of revertants per plate at 150 ug pretreated for 90 mins measured after 66 hrs by AMES test (reference value: 206 +/- 7.07); type: toxicity, Salmonella enterica subsp. enterica serovar Typhimurium; conditions: in vivo, 67.5 h, dose 150 µg
[23] = Mutagenicity in Salmonella typhimurium TA100 assessed as number of revertants per plate at 50 ug pretreated for 90 mins measured after 66 hrs in presence of S9 by AMES test (reference value: 201 +/- 9.90); type: toxicity, Salmonella enterica subsp. enterica serovar Typhimurium; conditions: in vivo, 67.5 h, dose 50 µg
[24] = Stability of compound in simulated intestinal fluid assessed as compound remaining at 2 mg/ml measured after 24 hrs by HPLC analysis; type: ADME; conditions: read-out: Stability
[25] = Mutagenicity in Salmonella typhimurium TA98 assessed as number of revertants per plate at 1500 ug pretreated for 90 mins measured after 66 hrs in presence of S9 fraction by AMES test (reference value: 24.33 +/- 9.50); type: toxicity, subcellular, Salmonella enterica subsp. enterica serovar Typhimurium; conditions: s9, 67.5 h, dose 1500 µg
[26] = Mutagenicity in Salmonella typhimurium TA100 assessed as mutagenic index ratio at 50 ug pretreated for 90 mins measured after 66 hrs in presence of S9 by AMES test; type: toxicity, Salmonella enterica subsp. enterica serovar Typhimurium; conditions: in vivo, 67.5 h, dose 50 µg

N#Cc1ccccc1C1Sc2ccccc2NC2=C1C(=O)c1ccccc12 (configuration not stated)
Activity [1]: 32 | Activity [2]: 43.5 | Activity [3]: 241 | Ratio [4]: 1.46 | Ratio [5]: 1.01 | MIC (Escherichia coli): > 125 µg/mL | Ratio [6]: 1.12 | Ratio [7]: 1.78 | MIC (Nakaseomyces glabratus): > 1000 µg/mL | Ratio [8]: 1.13 | viability at 20 h, 25 ug/ml [9]: 84% | Ratio [10]: 0.92 | Activity [11]: 43.5 | Activity (Chlamydia trachomatis): Dose-Dependent Effect | viability at 20 h, 256 ug/ml [12]: 50% | Activity [13]: 34.5 | MIC [14]: > 125 µg/mL | MIC (Candida tropicalis): > 1000 µg/mL | MIC (Acinetobacter baumannii): > 125 µg/mL | Activity [15]: 38 | Activity [16]: 227 | Activity [17]: 39 | MIC (Thomasclavelia ramosa): > 125 µg/mL | Ratio [18]: 1.78 | Ratio [19]: 0.98 | Activity [20]: 198.5 | Activity [21]: 190.5 | Activity [22]: 187.5 | Activity [23]: 185 | remaining at 24 h, 2 mg/ml [24]: 85% | Activity [25]: 30.5 | Ratio [26]: 0.92
